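Each compound was tested at five concentrations against cells in 96-well plates for 48 hours. GI50 is the concentration that inhibits growth by half. TGI: concentration producing complete growth inhibition.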
Legend:
Test in all cases: NCI anticancer screen, dose series, 48 h
[1] = system: MDA-MB-435
[2] = system: NCI-H226 lung
[3] = system: LOX IMVI melanoma
[4] = system: HOP-62 NSCLC
[5] = system: NCI-H522 lung
[6] = system: SF-295 CNS
[7] = system: CAKI-1 renal
[8] = system: UACC-257 melanoma
[9] = system: HS 578T breast
[10] = system: MCF7 breast
[11] = system: COLO 205 colon
[12] = system: HCT-15 colon
[13] = system: HL-60(TB) leukemia
[14] = system: M14 melanoma
[15] = system: DU-145 prostate
[16] = system: OVCAR-3 ovarian
[17] = system: SW-620 colon
[18] = system: MDA-MB-468 breast
[19] = system: ACHN renal
[20] = system: UO-31 renal
[21] = system: EKVX NSCLC
[22] = system: MALME-3M melanoma
[23] = system: SK-MEL-2 melanoma
[24] = system: SNB-75 CNS
[25] = system: BT-549 breast
[26] = system: PC-3 prostate
[27] = system: RPMI-8226 leukemia
[28] = system: HT29 colon
[29] = system: OVCAR-5 ovarian
[30] = system: SK-MEL-5 melanoma
[31] = system: OVCAR-8 ovarian
[32] = system: RXF 393 renal
[33] = system: NCI-H23 lung
[34] = system: SF-539 CNS
[35] = system: SN12C renal
[36] = system: MOLT-4 leukemia
[37] = system: SNB-19 CNS
[38] = system: TK-10 renal
[39] = system: K-562 leukemia
[40] = system: KM12 colon
[41] = system: HCC-2998 colon
[42] = system: NCI-H460 lung
[43] = system: SK-MEL-28 melanoma
[44] = system: T-47D breast
[45] = system: UACC-62 melanoma
[46] = system: 786-0 renal
[47] = system: A549 NSCLC
[48] = system: SK-OV-3 ovarian
[49] = system: MDA-MB-231 breast
[50] = system: IGROV1 ovarian
[51] = system: OVCAR-4 ovarian
[52] = system: HOP-92 NSCLC
[53] = system: HCT-116 colon
[54] = system: SR leukemia
[55] = system: CCRF-CEM leukemia
[56] = system: A498 renal
[57] = system: U251 CNS
[58] = system: SF-268 CNS

## O=C(/C=C/c1cccc(Br)c1)c1nc2ccccc2n1Cc1ccc(F)cc1
[1]
  GI50: 3.87 µM
  TGI: 16.2 µM
[2]
  GI50: 17 µM
  TGI: 44 µM
[3]
  GI50: 2.87 µM
  TGI: 10.5 µM
[4]
  GI50: 14.6 µM
  TGI: 38.8 µM
[5]
  GI50: 10.9 µM
  TGI: 32.7 µM
[6]
  GI50: 11.3 µM
  TGI: 27.1 µM
[7]
  GI50: 5.72 µM
  TGI: 32.5 µM
[8]
  GI50: 10.7 µM
  TGI: 31.1 µM
[9]
  GI50: 9.74 µM
  TGI: > 100 µM
[10]
  GI50: 2.83 µM
  TGI: 16.7 µM
[11]
  GI50: 16.6 µM
  TGI: 36.2 µM
[12]
  GI50: 3.65 µM
  TGI: 14.6 µM
[13]
  GI50: 4.06 µM
  TGI: 26.7 µM
[14]
  GI50: 10.6 µM
  TGI: 26.1 µM
[15]
  GI50: 12.6 µM
  TGI: 47.6 µM
[16]
  GI50: 4.17 µM
  TGI: 16.9 µM
[17]
  GI50: 3.8 µM
  TGI: 14.6 µM
[18]
  GI50: 5.02 µM
  TGI: 18.2 µM
[19]
  GI50: 13.3 µM
  TGI: 40.6 µM
[20]
  GI50: 5.17 µM
  TGI: 18.9 µM
[21]
  GI50: 11.5 µM
  TGI: 28.6 µM
[22]
  GI50: 11.6 µM
  TGI: 26 µM
[23]
  GI50: 11.6 µM
  TGI: 29.6 µM
[24]
  GI50: 3.24 µM
  TGI: 68.1 µM
[25]
  GI50: 3.87 µM
  TGI: 16.5 µM
[26]
  GI50: 6.42 µM
  TGI: 34.3 µM
[27]
  GI50: 4.02 µM
  TGI: > 100 µM
[28]
  GI50: 5.23 µM
  TGI: 20.6 µM
[29]
  GI50: 11.8 µM
  TGI: 27.7 µM
[30]
  GI50: 10.3 µM
  TGI: 23.2 µM
[31]
  GI50: 5.05 µM
  TGI: 27.1 µM
[32]
  GI50: 4.04 µM
  TGI: 15.9 µM
[33]
  GI50: 9.04 µM
  TGI: 26 µM
[34]
  GI50: 13.6 µM
  TGI: 26.8 µM
[35]
  GI50: 14.9 µM
  TGI: 40.1 µM
[36]
  GI50: 3.85 µM
  TGI: > 100 µM
[37]
  GI50: 11.2 µM
  TGI: 25.3 µM
[38]
  GI50: 17.1 µM
  TGI: 57.5 µM
[39]
  GI50: 3.75 µM
  TGI: > 100 µM
[40]
  GI50: 5.52 µM
  TGI: 22.4 µM
[41]
  GI50: 11.4 µM
  TGI: 24.2 µM
[42]
  GI50: 4.65 µM
  TGI: 20 µM
[43]
  GI50: 9.33 µM
  TGI: 23.1 µM
[44]
  GI50: 5.01 µM
  TGI: 84.2 µM
[45]
  GI50: 4.67 µM
  TGI: 18.2 µM
[46]
  GI50: 11.8 µM
  TGI: 26.2 µM
[47]
  GI50: 14.2 µM
  TGI: 96.3 µM
[48]
  GI50: 62.4 µM
  TGI: > 100 µM
[49]
  GI50: 6.59 µM
  TGI: 27.2 µM
[50]
  GI50: 8.02 µM
  TGI: 32.4 µM
[51]
  GI50: 14.5 µM
  TGI: > 100 µM
[52]
  GI50: 3.26 µM
  TGI: 35 µM
[53]
  GI50: 3.79 µM
  TGI: 14.2 µM
[54]
  GI50: 4.73 µM
  TGI: > 100 µM
[55]
  GI50: 3.83 µM
  TGI: > 100 µM
[56]
  GI50: 54.3 µM
  TGI: > 100 µM
[57]
  GI50: 5.49 µM
  TGI: 20.3 µM
[58]
  GI50: 16.7 µM
  TGI: > 100 µM
